In US20210278391A1, “COMPOSITIONS AND METHODS FOR TREATING CARDIOVASCULAR AND METABOLIC CONDITIONS” (The Regents of the University of California, priority 2017, published 2021):

Conditions: male, C57BL/6, mouse, in vivo, ip
Protocol: Ob/ob mice or wildtype C57BL/6 male mice were purchased from Jackson Labs or SLAC Laboratory Animals Company Limited, Shanghai, China. PP2Cm germ-line knockout mice were generated as previously described (Lu et al. (2009) J Clin Invest 119:1678-1687). All animals were housed at 22° C. with a 12-hour light, 12-hour dark cycle with free access to water and standard chow. BCAA in water was prepared by BCAA powders. Isocaloric high protein diet (TD90018) and low protein diet (TD90016) were purchased from Envigo Teklad Diet. For glucose or insulin tolerance test, mice were fasted for 6 hours and injected (intraperitoneally) with insulin or D-glucose. […] For BCAA tolerance test, ob/ob mice at age of 10 weeks or high fat diet induced obese (DIO) mice were used. To induce DIO, high fat diet (60% kcal % fat) or control diet (10% kcal % fat) (Research Diets, New Brunswick, N.J.) was used to feed mice starting at 6 weeks of age and continued for 8 weeks. […] Plasma samples were collected at 0, 30, 60, 120 minute points to measure BCAA/BCKA levels. […]
Blood samples were collected at 0, 30, 60, 120 minute points as indicated. Plasma was then collected and BCAA/BCKA was measured.

time point of recovery to near the basal level: 1 h
Compound: CC(C)C[C@H](N)C(=O)O [leucine]
